Patent US6348471B1, “Pyrimidyl oxyphenylacetic acid derivatives” (Bayer Aktiengesellschaft, priority 1997, dated 2002)

Key:
[1] = logP by HPLC (EEC directive 79/831 Annex V. A8, gradient method); format: physicochemical
Leptosphaeria nodorum = Leptosphaeria nodorum test (wheat)/curative; format: in vivo; details: curative, application rate 125 g/ha, evaluation 10 days after inoculation
Protocol: Leptosphaeria nodorum test (wheat)/curative Solvent: 10 parts by weight of N-methyl-pyrrolidone Emulsifier: 0.6 parts by weight of alkylaryl polyglycol ether To produce a suitable preparation of active compound, 1 part by weight of active compound is mixed with the stated amounts of solvent and emulsifier, and the concentrate is diluted with water to the desired concentration. To test for curative activity, young plants are sprayed with a conidia suspension of Leptosphaeria nodorum. […] The plants are placed in a greenhouse at a temperature of approximately 15° C. and a relative atmospheric humidity of approximately 80%.

Pyrenophora teres = Pyrenophora teres test (barley)/curative; format: in vivo; details: curative, application rate 250 g/ha, evaluation 7 days after inoculation
Protocol: Pyrenophora teres test (barley)/curative Solvent: 10 parts by weight of N-methyl-pyrrolidone Emulsifier: 0.6 parts by weight of alkylaryl polyglycol ether To produce a suitable preparation of active compound, 1 part by weight of active compound is mixed with the stated amounts of solvent and emulsifier, and the concentrate is diluted with water to the desired concentration. To test for curative activity, young plants are sprayed with a conidia suspension of Pyrenophora teres. The plants remain in an incubation cabin at 20° C. and 100% relative atmospheric humidity for 48 hours. The plants are subsequently sprayed with the preparation of active compound at the stated application rate. The plants are placed in a greenhouse at a temperature of approximately 20° C. and a relative atmospheric humidity of approximately 80%.

- chromatographic logP [1]: 2.2
SMILES: CNC(=O)C(=NOC)c1ccccc1Oc1nccc(OC(C)C)n1 [Example 1, 2-[2-(4-isopropoxypyrimidin-2-yloxy)-phenyl]-2-methoxyimino-N-methylacetamide]
- efficacy (Leptosphaeria nodorum): more than 60%
- efficacy (Pyrenophora teres): 70%
